{
  "source": "patent US6365643B1",
  "about": "“Photoinitiators for cationic curing” (Th. Goldschmidt AG, priority 1999, dated 2002)",
  "key": {"[1]": {"test": "Solubility in white spirit", "assay_type": "physicochemical", "from_the_text": "The solubility of the cationic photoinitiators of the invention was compared with the solubility of commercial, hydroxyl-bearing cationic photoinitiators."}, "[2]": {"test": "Miscibility with organopolysiloxanes containing epoxy groups", "assay_type": "physicochemical"}},
  "note": "Where two headings read alike, the source gives them in different places.",
  "data": [
    {"smiles": "CCCCCCCCCCCCC(O)COc1ccc([I+]c2ccccc2)cc1", "note": "(stereo not drawn) [CD-1012]", "values": [
      {"measurement": "solubility in white spirit", "setting": "[1]", "result": "insoluble"},
      {"measurement": "solubility in white spirit", "setting": "[1]; Table 1, Comparison 1", "result": "insoluble"},
      {"measurement": "miscibility with organopolysiloxanes containing epoxy groups", "setting": "[2]", "result": "no miscibility"}
    ]}
  ]
}
